Experimental findings from patent publication US9085554B2, “Method of evaluating pharmaceutical preparation containing luliconazole and index substance” (POLA PHARMA INC., priority 2013, dated 2015) are described below.

One data set has as its system fungi. The experiment in a line: Antifungal activity of the amide form.
Data set [1] can be described thus: Severe test / accelerated test of luliconazole as the active ingredient. In kind it is physicochemical. The text has this: Further, it is considered that this amide form is produced by the addition of water with respect to a cyano group of the luliconazole. […] Namely, the presence of the amide form is speculated; however, the substance thereof has not been understood. Accordingly, it is difficult to speculate in the stage of manufacturing the pharmaceutical preparation that such a compound may be produced under a storage condition depending on the type of the solvent.
The severe condition herein refers to a storage condition at 60° C. for 3 weeks, and the accelerated condition herein refers to a storage condition at 40° C. for 6 months. The stability of a pharmaceutical preparation containing luliconazole has shown very good consistency between the severe condition and the accelerated condition. Accordingly, either of the conditions can be used. Further, the storage at 40° C. for 6 months is known as a condition substitutable for the condition at a room temperature for 3 years in an application for manufacturing approval of a pharmaceutical.
It is known that water is usually readily added to a cyano group by an acid or a base and the amide form is thereby produced. However, this generality is not applicable in the case of luliconazole, for the following reason. […]

Molecules are shown by their SMILES.

For `NC(=O)/C(=C1/SC[C@@H](c2ccc(Cl)cc2Cl)S1)n1ccnc1` [amide form, [R-(E)]-α-[4-(2,4-dichlorophenyl)-1,3-dithiolan-2-ylidene]-1H-imidazole-1-acetamide], the Antifungal activity result in the data set on fungi is listed as “low”.
In the case of `N#C/C(=C1/SC[C@@H](c2ccc(Cl)cc2Cl)S1)n1ccnc1` [luliconazole, Luliconazole], the “Production of SE form and Z form” value in data set [1] (accelerated test and/or severe test) is “relatively readily produced”. Also, the “Production of amide form from luliconazole active ingredient” value in data set [1] (severe test (60° C., 3 weeks) or accelerated test (40° C., 6 months) of the active ingredient) was “hardly produced”.
